Test results as given in patent US20230295182A1, “SPIRO DERIVATIVES OF ALPHA-D-GALACTOPYRANOSIDES” (Idorsia Pharmaceuticals Ltd, priority 2020, published 2023).

Tests used:
human Gal-3 (hGal-3) = human Gal-3 (hGal-3) (Homo sapiens (Human), UniProt P17931); assay: Competitive binding assay: biotinylated hGal-3 to microplate-adsorbed asialofetuin (ASF); details: Activity on hGal-3; binding to ASF-coated plates, 3 hours at 4° C.; mean values
How it was run: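 Biotinylated hGal-3 (300-1000 ng/mL) binding to plate-adsorbed asialofetuin, with DMSO-diluted compound added, incubated 3 h at 4 °C. After washing, bound protein detected with streptavidin-peroxidase (80 ng/mL, 1 h, 4 °C) and ABTS substrate, read spectrophotometrically. IC50 given as mean of several measurements.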

human Gal-1 (hGal-1) = human Gal-1 (hGal-1) (Homo sapiens, UniProt P09382); assay: Competitive binding assay: biotinylated hGal-1 to microplate-adsorbed asialofetuin (ASF); details: Activities on hGal-1; binding to ASF-coated plates, 3 hours at 4° C.; mean values; read-out: Gal-1 IC50
Chain of human Gal-1 (hGal-1) (P09382 2-135 limits assumed): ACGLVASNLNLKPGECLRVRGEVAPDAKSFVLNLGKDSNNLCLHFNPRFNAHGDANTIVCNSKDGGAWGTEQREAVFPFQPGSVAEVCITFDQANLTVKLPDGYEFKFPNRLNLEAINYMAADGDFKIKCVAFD
How it was run: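 Plate-adsorbed asialofetuin is incubated 3 h at 4 °C with biotinylated hGal-1, optionally its all-serine-substituted cysteine variant, plus compound dilutions. ABTS color after 1 h streptavidin-peroxidase (80 ng/mL) at 4 °C reports binding. Reported IC50 is a mean across repeat runs.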

Chain of human Gal-3 (hGal-3) (P17931 whole entry): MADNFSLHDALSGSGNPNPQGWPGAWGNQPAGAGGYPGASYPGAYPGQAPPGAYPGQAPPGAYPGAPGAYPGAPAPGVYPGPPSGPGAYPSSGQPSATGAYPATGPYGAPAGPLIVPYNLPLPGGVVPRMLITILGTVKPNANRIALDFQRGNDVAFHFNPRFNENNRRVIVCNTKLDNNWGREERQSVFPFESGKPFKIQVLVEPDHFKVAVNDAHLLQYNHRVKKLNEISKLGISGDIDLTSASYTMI

Row | Compound | IC50 (human Gal-3 (hGal-3)) [nM] | IC50 (human Gal-1 (hGal-1)) [nM]
1 | CO[C@@H]1[C@@H](n2cc(-c3ccc(C)c(F)c3F)nn2)[C@@H](O)[C@@H](CO)O[C@@H]1CC1=NOC2(CCCN(C(=O)OC(C)(C)C)CC2)C1 (mixture of isomers) [Example 1.75, tert-butyl (RS)-3-(((2R,3R,4S,5R,6R)-4-(4-(2,3-difluoro-4-methylphenyl)-1H-1,2,3-triazol-1-yl)-5-hydroxy-6-(hydroxymethyl)-3-methoxytetrahydro-2H-pyran-2-yl)methyl)-1-oxa-2,8-diazaspiro[4.6]undec-2-ene-8-carboxylate] | 160 | 8200
2 | CO[C@@H]1[C@@H](n2cc(-c3cc(F)c(C)c(F)c3)nn2)[C@@H](O)[C@@H](CO)O[C@@H]1CC1=NOC2(CCCCC2)C1 [Example 1.21, (2R,3R,4S,5R,6R)-6-((1-oxa-2-azaspiro[4.5]dec-2-en-3-yl)methyl)-4-(4-(3,5-difluoro-4-methylphenyl)-1H-1,2,3-triazol-1-yl)-2-(hydroxymethyl)-5-methoxytetrahydro-2H-pyran-3-ol] | 110 | 11400
3 | CO[C@@H]1[C@@H](n2cc(-c3ccc(Cl)c(F)c3F)nn2)[C@@H](O)[C@@H](CO)O[C@@H]1CC1=NOC2(CCC(C#N)CC2)C1 (stereo partly drawn) [Example 1.49, 3-(((2R,3R,4S,5R,6R)-4-(4-(4-chloro-2,3-difluorophenyl)-1H-1,2,3-triazol-1-yl)-5-hydroxy-6-(hydroxymethyl)-3-methoxytetrahydro-2H-pyran-2-yl)methyl)-1-oxa-2-azaspiro[4.5]dec-2-ene-8-carbonitrile] | 110 | 1200
4 | CO[C@@H]1[C@@H](n2cc(-c3ccc(F)c(F)c3F)nn2)[C@@H](O)[C@@H](CO)O[C@@H]1CC1=NOC2(CCOCC2)C1 [Example 1.35, (2R,3R,4S,5R,6R)-6-((1,8-dioxa-2-azaspiro[4.5]dec-2-en-3-yl)methyl)-2-(hydroxymethyl)-5-methoxy-4-(4-(2,3,4-trifluorophenyl)-1H-1,2,3-triazol-1-yl)tetrahydro-2H-pyran-3-ol] | 110 | 1400
5 | COC(=O)CO[C@@H]1[C@@H](n2cc(-c3cc(F)c(F)c(F)c3)nn2)[C@@H](O)[C@@H](CO)O[C@@H]1CC1=NOC2(CCCCC2)C1 [Example 1.68, methyl 2-(((2R,3R,4S,5R,6R)-2-((1-oxa-2-azaspiro[4.5]dec-2-en-3-yl)methyl)-5-hydroxy-6-(hydroxymethyl)-4-(4-(3,4,5-trifluorophenyl)-1H-1,2,3-triazol-1-yl)tetrahydro-2H-pyran-3-yl)oxy)acetate] | 220 | 3700
6 | CO[C@@H]1[C@@H](n2cc(-c3ccc(F)c(F)c3F)nn2)[C@@H](O)[C@@H](CO)O[C@@H]1CC1=NO[C@]2(CC[C@@H](NC(=O)OC(C)(C)C)CC2)C1 [Example 1.42, tert-butyl ((5s,8S)-3-(((2R,3R,4S,5R,6R)-5-hydroxy-6-(hydroxymethyl)-3-methoxy-4-(4-(2,3,4-trifluorophenyl)-1H-1,2,3-triazol-1-yl)tetrahydro-2H-pyran-2-yl)methyl)-1-oxa-2-azaspiro[4.5]dec-2-en-8-yl)carbamate] | 132 | 850
7 | CO[C@@H]1[C@@H](n2cc(-c3ccc(Cl)c(F)c3F)nn2)[C@@H](O)[C@@H](CO)O[C@@H]1CC1=NOC2(CCOCC2)C1 [Example 1.37, (2R,3R,4S,5R,6R)-6-((1,8-dioxa-2-azaspiro[4.5]dec-2-en-3-yl)methyl)-4-(4-(4-chloro-2,3-difluorophenyl)-1H-1,2,3-triazol-1-yl)-2-(hydroxymethyl)-5-methoxytetrahydro-2H-pyran-3-ol] | 120 | 4600
8 | CO[C@@H]1[C@@H](n2cc(-c3ccc(C)c(F)c3F)nn2)[C@@H](O)[C@@H](CO)O[C@@H]1CC1=NOC2(CCC(=O)N(C)CC2)C1 (mixture of isomers) [Example 1.77, (RS)-3-(((2R,3R,4S,5R,6R)-4-(4-(2,3-difluoro-4-methylphenyl)-1H-1,2,3-triazol-1-yl)-5-hydroxy-6-(hydroxymethyl)-3-methoxytetrahydro-2H-pyran-2-yl)methyl)-8-methyl-1-oxa-2,8-diazaspiro[4.6]undec-2-en-9-one] | 100 | 4800
9 | CO[C@@H]1[C@@H](n2cc(-c3ccc(C)c(F)c3F)nn2)[C@@H](O)[C@@H](CO)O[C@@H]1CC1=NOC2(CCCCC2)C1 [Example 1.14, (2R,3R,4S,5R,6R)-6-((1-oxa-2-azaspiro[4.5]dec-2-en-3-yl)methyl)-4-(4-(2,3-difluoro-4-methylphenyl)-1H-1,2,3-triazol-1-yl)-2-(hydroxymethyl)-5-methoxytetrahydro-2H-pyran-3-ol] | 78 | 2100
10 | CO[C@@H]1[C@@H](n2cc(-c3cc(F)c(F)c(F)c3)nn2)[C@@H](O)[C@@H](CO)O[C@@H]1CC1=NOC2(CCCCC2)C1 [Example 1.08, (2R,3R,4S,5R,6R)-6-((1-oxa-2-azaspiro[4.5]dec-2-en-3-yl)methyl)-2-(hydroxymethyl)-5-methoxy-4-(4-(3,4,5-trifluorophenyl)-1H-1,2,3-triazol-1-yl)tetrahydro-2H-pyran-3-ol] | 240 | 1900
11 | CO[C@@H]1[C@@H](n2cc(-c3ccc(C)c(F)c3F)nn2)[C@@H](O)[C@@H](CO)O[C@@H]1CC1=NO[C@]2(CC[C@@H](C#N)CC2)C1 [Example 1.56, (5s,8S)-3-(((2R,3R,4S,5R,6R)-4-(4-(2,3-difluoro-4-methylphenyl)-1H-1,2,3-triazol-1-yl)-5-hydroxy-6-(hydroxymethyl)-3-methoxytetrahydro-2H-pyran-2-yl)methyl)-1-oxa-2-azaspiro[4.5]dec-2-ene-8-carbonitrile] | 120 | 3600

Continued, values first:

Row | IC50 (human Gal-3 (hGal-3)) [nM] | IC50 (human Gal-1 (hGal-1)) [nM] | Compound
12 | 19 | 340 | CCOC(=O)N[C@H]1CC[C@]2(CC1)CC(C[C@H]1O[C@H](CO)[C@H](O)[C@H](n3cc(-c4ccc(Cl)c(F)c4F)nn3)[C@H]1OC)=NO2 [Example 2.11, ethyl ((5r,8R)-3-(((2R,3R,4S,5R,6R)-4-(4-(4-chloro-2,3-difluorophenyl)-1H-1,2,3-triazol-1-yl)-5-hydroxy-6-(hydroxymethyl)-3-methoxytetrahydro-2H-pyran-2-yl)methyl)-1-oxa-2-azaspiro[4.5]dec-2-en-8-yl)carbamate]
13 | 530 | 3500 | CO[C@@H]1[C@@H](n2cc(-c3cc(F)c(F)c(F)c3)nn2)[C@@H](O)[C@@H](CO)O[C@@H]1CC1=NOC2(CCN(S(C)(=O)=O)CC2)C1 [Example 2.31, (2R,3R,4S,5R,6R)-2-(hydroxymethyl)-5-methoxy-6-((8-(methylsulfonyl)-1-oxa-2,8-diazaspiro[4.5]dec-2-en-3-yl)methyl)-4-(4-(3,4,5-trifluorophenyl)-1H-1,2,3-triazol-1-yl)tetrahydro-2H-pyran-3-ol]
14 | 280 | 7200 | CO[C@@H]1[C@@H](n2cc(-c3cc(F)c(F)c(F)c3)nn2)[C@@H](O)[C@@H](CO)O[C@@H]1CC1=NOC2(CCC(NCC(F)F)CC2)C1 (stereo partly drawn) [Example 2.15, (2R,3R,4S,5R,6R)-6-((8-((2,2-difluoroethyl)amino)-1-oxa-2-azaspiro[4.5]dec-2-en-3-yl)methyl)-2-(hydroxymethyl)-5-methoxy-4-(4-(3,4,5-trifluorophenyl)-1H-1,2,3-triazol-1-yl)tetrahydro-2H-pyran-3-ol]
15 | 62 | 910 | CO[C@@H]1[C@@H](n2cc(-c3ccc(Cl)c(F)c3F)nn2)[C@@H](O)[C@@H](CO)O[C@@H]1CC1=NO[C@]2(CC[C@H](NC(C)=O)CC2)C1 [Example 2.07, N-((5r,8R)-3-(((2R,3R,4S,5R,6R)-4-(4-(4-chloro-2,3-difluorophenyl)-1H-1,2,3-triazol-1-yl)-5-hydroxy-6-(hydroxymethyl)-3-methoxytetrahydro-2H-pyran-2-yl)methyl)-1-oxa-2-azaspiro[4.5]dec-2-en-8-yl)acetamide]
16 | 61 | 810 | CO[C@@H]1[C@@H](n2cc(-c3cc(F)c(F)c(F)c3)nn2)[C@@H](O)[C@@H](CO)O[C@@H]1CC1=NO[C@]2(CC[C@H](NC(C)=O)CC2)C1 [Example 2.04, N-((5r,8R)-3-(((2R,3R,4S,5R,6R)-5-hydroxy-6-(hydroxymethyl)-3-methoxy-4-(4-(3,4,5-trifluorophenyl)-1H-1,2,3-triazol-1-yl)tetrahydro-2H-pyran-2-yl)methyl)-1-oxa-2-azaspiro[4.5]dec-2-en-8-yl)acetamide]
17 | 81 | 1300 | CO[C@@H]1[C@@H](n2cc(-c3ccc(C)c(F)c3F)nn2)[C@@H](O)[C@@H](CO)O[C@@H]1CN1C=NC2(CCCCC2)C1 [Example 4.04, (2R,3R,4S,5R,6R)-6-((1,3-diazaspiro[4.5]dec-1-en-3-yl)methyl)-4-(4-(2,3-difluoro-4-methylphenyl)-1H-1,2,3-triazol-1-yl)-2-(hydroxymethyl)-5-methoxytetrahydro-2H-pyran-3-ol]
18 | 20 | 320 | CCOC(=O)N[C@H]1CC[C@]2(CC1)CC(C[C@H]1O[C@H](CO)[C@H](O)[C@H](n3cc(-c4ccc(F)c(F)c4F)nn3)[C@H]1OC)=NO2 [Example 2.10, ethyl ((5r,8R)-3-(((2R,3R,4S,5R,6R)-5-hydroxy-6-(hydroxymethyl)-3-methoxy-4-(4-(2,3,4-trifluorophenyl)-1H-1,2,3-triazol-1-yl)tetrahydro-2H-pyran-2-yl)methyl)-1-oxa-2-azaspiro[4.5]dec-2-en-8-yl)carbamate]
